Experimental findings from article PMC10981695, “The thylakoid proton antiporter KEA3 regulates photosynthesis in response to the chloroplast energy status” (Nature Communications, 2024) are described below.

One test deals with T1, KEA3 (Arabidopsis thaliana, UniProt Q9M0Z3).
T1 construct: native full-length KEA3 in detergent-solubilized wild-type thylakoid membranes, detected with specific KEA3 antibody
T1 sequence (Q9M0Z3 73-776): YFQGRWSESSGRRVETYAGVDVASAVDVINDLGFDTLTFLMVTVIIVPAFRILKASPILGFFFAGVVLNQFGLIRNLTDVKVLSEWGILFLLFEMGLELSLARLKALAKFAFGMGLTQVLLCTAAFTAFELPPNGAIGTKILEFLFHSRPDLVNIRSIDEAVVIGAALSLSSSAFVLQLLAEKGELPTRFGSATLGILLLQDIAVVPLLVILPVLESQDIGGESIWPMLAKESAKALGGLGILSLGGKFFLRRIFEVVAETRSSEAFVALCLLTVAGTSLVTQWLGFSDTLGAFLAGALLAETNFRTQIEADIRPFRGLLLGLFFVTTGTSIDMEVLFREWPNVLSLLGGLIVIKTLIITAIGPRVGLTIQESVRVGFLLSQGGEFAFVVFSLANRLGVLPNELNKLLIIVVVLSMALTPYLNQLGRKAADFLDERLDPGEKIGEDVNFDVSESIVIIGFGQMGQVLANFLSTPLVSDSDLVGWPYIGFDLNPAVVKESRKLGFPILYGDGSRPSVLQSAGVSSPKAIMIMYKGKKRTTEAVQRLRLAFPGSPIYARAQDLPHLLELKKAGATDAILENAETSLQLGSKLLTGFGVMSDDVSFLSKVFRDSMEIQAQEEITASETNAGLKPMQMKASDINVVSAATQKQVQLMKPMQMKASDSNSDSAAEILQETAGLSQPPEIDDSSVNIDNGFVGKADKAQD
The experiment in a line: affinity pull-down with ATP-linked agarose beads, immunoblot. It is filed as biochemical. The following applies: solubilized thylakoids; ATP immobilised via linker. In general terms: Immunoblotting shows a protein as a band on a membrane.

Test [1] concerns the target T2, RCT (regulatory C-terminus of KEA3, KEA3 AA495-776) (Arabidopsis thaliana, UniProt Q9M0Z3).
T2 sequence (Q9M0Z3 495-776): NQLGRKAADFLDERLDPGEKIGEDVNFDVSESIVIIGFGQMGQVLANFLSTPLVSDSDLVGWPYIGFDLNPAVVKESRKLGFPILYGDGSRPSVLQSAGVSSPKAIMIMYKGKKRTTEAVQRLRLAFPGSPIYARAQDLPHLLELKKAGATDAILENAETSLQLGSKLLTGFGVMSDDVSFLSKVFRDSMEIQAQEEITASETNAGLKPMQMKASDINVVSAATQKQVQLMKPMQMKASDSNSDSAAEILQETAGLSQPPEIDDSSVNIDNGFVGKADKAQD
The experiment in a line: temperature-related intensity change (TRIC), RED-tris-NTA labelled His-tag, one-site fit. It counts as binding. From the text:
temperature-related intensity change (TRIC), RED-tris-NTA labelled His-tag, one-site fit on RCT (regulatory C-terminus of KEA3, KEA3 AA495-776)

The target of test [2] is T2, RCT (regulatory C-terminus of KEA3, KEA3 AA495-776). The experiment in a line: differential scanning fluorimetry (nanoDSF, intrinsic fluorescence). It counts as binding. The following applies: pH 8.0, PBS; 50 and 500 µM ligand. For orientation: DSF heats the sample and reads unfolding from a dye or from intrinsic fluorescence.

Molecules are shown by their SMILES.

In general, Kd refers to a measure of binding affinity in units of concentration. Low values mean higher affinity, high ones lower affinity. In the case of `Nc1ncnc2c1ncn2[C@@H]1O[C@H](COP(=O)(O)OP(=O)(O)OP(=O)(O)O)[C@@H](O)[C@H]1O` [ATP], the “affinity pull-down with ATP-linked agarose beads, immunoblot” value on KEA3 is listed as “KEA3 was detected on three of four different types of ATP-linked agarose beads”. This molecule registered an equilibrium dissociation constant (Kd) in test [1] of 42 µM. In addition, the ΔTM entry in test [2] is “Addition of either ADP or ATP yielded a concentration-dependent increase in the ΔTM of RCT”.
With `NC(=O)c1ccc[n+]([C@@H]2O[C@H](COP(=O)(O)OP(=O)(O)OC[C@H]3O[C@@H](n4cnc5c(N)ncnc54)[C@H](OP(=O)(O)O)[C@@H]3O)[C@@H](O)[C@H]2O)c1` [NADP^+], in test [1], the affinity, expressed as Kd, was 8 µM. That is a single-digit micromolar value.
In test [1], `NC(=O)C1=CN([C@@H]2O[C@H](COP(=O)(O)OP(=O)(O)OC[C@H]3O[C@@H](n4cnc5c(N)ncnc54)[C@H](OP(=O)(O)O)[C@@H]3O)[C@@H](O)[C@H]2O)C=CC1` [NADPH] returned a Kd of 38 µM.
Consider `Nc1ncnc2c1ncn2[C@@H]1O[C@H](COP(=O)(O)OP(=O)(O)O)[C@@H](O)[C@H]1O` [ADP], for which binding in test [1] was put at a Kd of 51 µM. Moreover, the ΔTM entry in test [2] is “Addition of either ADP or ATP yielded a concentration-dependent increase in the ΔTM of RCT”.
